Tests used:
trypsin = molecular target: T1, trypsin (Bos taurus, UniProt P00760); assay: Inhibitory effects on trypsin (hydrolysis of p-tosylarginine methyl ester); format: biochemical; settings: 37° C., 10 minutes; concentration not given
T1 sequence (P00760 24-246): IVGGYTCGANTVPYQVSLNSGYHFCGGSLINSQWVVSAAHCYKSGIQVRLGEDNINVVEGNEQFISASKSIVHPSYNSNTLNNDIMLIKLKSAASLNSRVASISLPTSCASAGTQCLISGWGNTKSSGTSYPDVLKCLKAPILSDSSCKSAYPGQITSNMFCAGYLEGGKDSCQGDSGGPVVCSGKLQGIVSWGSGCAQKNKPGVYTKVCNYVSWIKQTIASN
Procedure: In particular, inhibitory effects of the compounds on hydrolysis of p-tosylarginine methyl ester by trypsin were examined (incubated at 37° C. for 10 minutes).

chymotrypsin = chymotrypsin (Bos taurus, UniProt P00766); assay: Inhibitory effects on chymotrypsin (hydrolysis of N-acetyl-L-tyrosine ethyl ester); format: biochemical; settings: 37° C., 10 minutes; concentration not given
Procedure: The compounds of the formula (I) have excellent inhibitory effects on protease. The inhibitory effects were determined by the following methods: Inhibitory effects on the compounds of chymotrypsin were determined according to the method described by M. […] In particular, inhibitory effects of the compounds on hydrolysis of N-acetyl-L-tyrosine ethyl ester by chymotrypsin were examined (incubated at 37° C. for 10 minutes).

thrombin = thrombin (Bos taurus, UniProt P00735); assay: Inhibitory effects on thrombin (hydrolysis of p-tosylarginine methyl ester); format: biochemical; settings: 37° C., 10 minutes; concentration not given
Procedure: The compounds of the formula (I) have excellent inhibitory effects on protease. The inhibitory effects were determined by the following methods:
Inhibitory effects of the compounds on thrombin were determined according to the method described by M. Muramatsu et al (The Journal of Biochemistry, Volume 65 (1), 17 (1969)). In particular, inhibitory effects of the compounds on hydrolysis of p-tosylarginine methyl ester by thrombin were examined (incubated at 37° C. for 10 minutes).

urokinase = urokinase (Homo sapiens, UniProt P00749); assay: Inhibitory effects on urokinase (hydrolysis of N-acetylglycyl lysine methyl ester); format: biochemical; settings: 37° C., 10 minutes; concentration not given
Procedure: The compounds of the formula (I) have excellent inhibitory effects on protease. The inhibitory effects were determined by the following methods: Inhibitory effects of the compounds on urokinase were determined according to the method described by A. J. Joeson et al (Throm. […]. 21, 259-272 (1969)). In particular, inhibitory effects of the compounds on hydrolysis of N-acetylglycyl lysine methyl ester by urokinase were determined (incubated at 37° C. for 10 minutes).

Shay ulcers = Shay ulcers (pylorus ligation); format: in vivo, Male Sprague-Dawley strain rats; settings: for Ulcer Grade 0 (number of rats): 0=no lesion; for Ulcer Grade 1 (number of rats): 1=hemorrhagic suffusion; for Ulcer Grade 2 (number of rats): 2=1-5 small ulcers (<3 mm); for Ulcer Grade 3 (number of rats): 3=many small ulcers (more than 5) or 1 ulcer of marked size; for Ulcer Grade 4 (number of rats): 4=many ulcers of marked size; for Ulcer Grade 5 (number of rats): 5=perforated ulcer
Procedure: The rats were sacrificed 18 hours later by an overdose of ether and the stomach removed. The stomach was incised along the greater curvature and the surface area of each lesion in forestomach was measured by the naked eye. […] 4=many ulcers of marked size 5=perforated ulcer The test drugs were given intraperitoneally, immediately after pylorus ligation.

acetic acid ulcers = assay: Acetic acid ulcers; format: in vivo, Male Sprague-Dawley strain rats; settings: for Ulcer Grade 1 (number of rats): ulcer area 0-10 mm^2; for Ulcer Grade 2 (number of rats): ulcer area 11-20 mm^2; for Ulcer Grade 3 (number of rats): ulcer area 21-30 mm^2; for Ulcer Grade 4 (number of rats): ulcer area 31-40 mm^2; for Ulcer Grade 5 (number of rats): ulcer area >40 mm^2
Procedure: Male Sprague-Dawley strain rats, weighing about 200 g were used. Under ether anesthesia 10% acetic acid solution (0.05 ml) was injected carefully between the serous membrane and the muscle near the pylorus, and the abdomen was closed. Thereafter, the animals were maintained under conditions and administered 1 ml/100 g of each test drug dissolved or suspended in 0.5% carboxymethylcellulose solution p.o. daily×10 starting from the next day of the operation. On the 11th day, the rats were sacrificed under ether anesthesia, and the stomachs were removed. The area of the ulcer was measured and graded into 5 degrees as an ulcer index according to the following method: […]

plasmin = settings: A. Okano et al, J. Med. Chem., Vol. 15, No. 3, 247 (1972); cited from earlier work

In the case of `CCOC(=O)CCc1ccc(OC(=O)[C@H]2CC[C@H](CNC(=N)N)CC2)cc1` [Compound 8], the “Inhibition (%) Trypsin” value (trypsin) is reported as 51%, the “Inhibition (%) Chymotrypsin” value (chymotrypsin) is reported as 20% and the “Inhibition (%) Thrombin” value (thrombin) is reported as 43%. For the same molecule, the “Inhibition (%) Urokinase” value (urokinase) was 55%, the “Ulcer Grade 0 (number of rats)” value (Shay ulcers; 200 mg/kg i.p.) was 4 and the “Ulcer Grade 1 (number of rats)” value (Shay ulcers; 200 mg/kg i.p.) was 2. For the same molecule, the “Ulcer Grade 2 (number of rats)” value (Shay ulcers; 200 mg/kg i.p.) was 2, the “Ulcer Grade 3 (number of rats)” value (Shay ulcers; 200 mg/kg i.p.) was 1 and the “Ulcer Grade 4 (number of rats)” value (Shay ulcers; 200 mg/kg i.p.) was 1. For the same molecule, the “Ulcer Grade 5 (number of rats)” value (Shay ulcers; 200 mg/kg i.p.) was 0, the “Ulcer Grade 1 (number of rats)” value (acetic acid ulcers; 300 mg/kg p.o. daily×10) was 4 and the “Ulcer Grade 2 (number of rats)” value (acetic acid ulcers; 300 mg/kg p.o. daily×10) was 3. For the same molecule, the “Ulcer Grade 3 (number of rats)” value (acetic acid ulcers; 300 mg/kg p.o. daily×10) was 1, the “Ulcer Grade 4 (number of rats)” value (acetic acid ulcers; 300 mg/kg p.o. daily×10) was 0 and the “Ulcer Grade 5 (number of rats)” value (acetic acid ulcers; 300 mg/kg p.o. daily×10) was 0.

In the case of `NC[C@H]1CC[C@H](C(=O)O)CC1` [Tranexamic acid, trans-4-aminomethylcyclohexane carboxylic acid], the anti-plasmin effects (plasmin) is listed as “excellent anti-plasmin effects”.

In the case of `Cl.NC[C@H]1CC[C@H](C(=O)Oc2ccc(CCC(=O)O)cc2)CC1` [Compound A, 4(2hydroxycarbonylethyl)phenyl trans4-aminomethylcyclohexanecarboxylate hydrochloride, reference compound], the “Inhibition (%) Trypsin” value (trypsin) is reported as 65%, the “Inhibition (%) Chymotrypsin” value (chymotrypsin) is reported as 0% and the “Inhibition (%) Thrombin” value (thrombin) is reported as 30%. For the same molecule, the “Inhibition (%) Urokinase” value (urokinase) was 32%, the “Ulcer Grade 0 (number of rats)” value (Shay ulcers; 150 mg/kg i.p.) was 2 and the “Ulcer Grade 1 (number of rats)” value (Shay ulcers; 150 mg/kg i.p.) was 0. For the same molecule, the “Ulcer Grade 2 (number of rats)” value (Shay ulcers; 150 mg/kg i.p.) was 3, the “Ulcer Grade 3 (number of rats)” value (Shay ulcers; 150 mg/kg i.p.) was 1 and the “Ulcer Grade 4 (number of rats)” value (Shay ulcers; 150 mg/kg i.p.) was 4. For the same molecule, the “Ulcer Grade 5 (number of rats)” value (Shay ulcers; 150 mg/kg i.p.) was 0, the “Ulcer Grade 0 (number of rats)” value (Shay ulcers; 300 mg/kg i.p.) was 6 and the “Ulcer Grade 1 (number of rats)” value (Shay ulcers; 300 mg/kg i.p.) was 0. For the same molecule, the “Ulcer Grade 2 (number of rats)” value (Shay ulcers; 300 mg/kg i.p.) was 0, the “Ulcer Grade 3 (number of rats)” value (Shay ulcers; 300 mg/kg i.p.) was 1 and the “Ulcer Grade 4 (number of rats)” value (Shay ulcers; 300 mg/kg i.p.) was 2. For the same molecule, the “Ulcer Grade 5 (number of rats)” value (Shay ulcers; 300 mg/kg i.p.) was 1, the “Ulcer Grade 1 (number of rats)” value (acetic acid ulcers; 250 mg/kg p.o. daily×10) was 4 and the “Ulcer Grade 2 (number of rats)” value (acetic acid ulcers; 250 mg/kg p.o. daily×10) was 8. For the same molecule, the “Ulcer Grade 3 (number of rats)” value (acetic acid ulcers; 250 mg/kg p.o. daily×10) was 3, the “Ulcer Grade 4 (number of rats)” value (acetic acid ulcers; 250 mg/kg p.o. daily×10) was 2 and the “Ulcer Grade 5 (number of rats)” value (acetic acid ulcers; 250 mg/kg p.o. daily×10) was 0. For the same molecule, the “Ulcer Grade 1 (number of rats)” value (acetic acid ulcers; 300 mg/kg p.o. daily×10) was 2, the “Ulcer Grade 2 (number of rats)” value (acetic acid ulcers; 300 mg/kg p.o. daily×10) was 2 and the “Ulcer Grade 3 (number of rats)” value (acetic acid ulcers; 300 mg/kg p.o. daily×10) was 2. The “Ulcer Grade 4 (number of rats)” value (acetic acid ulcers; 300 mg/kg p.o. daily×10) was 1, the “Ulcer Grade 5 (number of rats)” value (acetic acid ulcers; 300 mg/kg p.o. daily×10) was 1 and the “Ulcer Grade 1 (number of rats)” value (acetic acid ulcers; 500 mg/kg p.o. daily×10) was 7. For the same molecule, the “Ulcer Grade 2 (number of rats)” value (acetic acid ulcers; 500 mg/kg p.o. daily×10) was 6, the “Ulcer Grade 3 (number of rats)” value (acetic acid ulcers; 500 mg/kg p.o. daily×10) was 1 and the “Ulcer Grade 4 (number of rats)” value (acetic acid ulcers; 500 mg/kg p.o. daily×10) was 0. For the same molecule, the “Ulcer Grade 5 (number of rats)” value (acetic acid ulcers; 500 mg/kg p.o. daily×10) was 1.

For `N=C(N)NCC1CCC(C(=O)O)CC1` (stereo not drawn) [4-guanidinomethylcyclohexanecarboxylic acid], the anti-plasmin effects (plasmin) is given as “little anti-plasmin effects”.

From US4348410A, “Cyclohexane carboxylic acid derivatives” (Nippon Chemiphar Co., Ltd., priority 1979, dated 1982)
